Measured values published in ChEMBL document CHEMBL1143427, “Interactions of ceftobiprole with beta-lactamases from molecular classes A to D” (Antimicrob Agents Chemother, 2007).

What was measured:
[1] = molecular target: Beta-lactamase (Pseudomonas aeruginosa (strain ATCC 15692 / PAO1 / 1C / PRS 101 / LMG12228)) (UniProt P24735); experiment: Activity of Pseudomonas aeruginosa 4352 AmpC assessed as drug hydrolysis by spectrophotometry relative to cephaloridine; design: scale not given: the % may be the effect or the level left
Chain of Beta-lactamase (Pseudomonas aeruginosa (strain ATCC 15692 / PAO1 / 1C / PRS 101 / LMG12228)) (P24735 27-397 limits assumed): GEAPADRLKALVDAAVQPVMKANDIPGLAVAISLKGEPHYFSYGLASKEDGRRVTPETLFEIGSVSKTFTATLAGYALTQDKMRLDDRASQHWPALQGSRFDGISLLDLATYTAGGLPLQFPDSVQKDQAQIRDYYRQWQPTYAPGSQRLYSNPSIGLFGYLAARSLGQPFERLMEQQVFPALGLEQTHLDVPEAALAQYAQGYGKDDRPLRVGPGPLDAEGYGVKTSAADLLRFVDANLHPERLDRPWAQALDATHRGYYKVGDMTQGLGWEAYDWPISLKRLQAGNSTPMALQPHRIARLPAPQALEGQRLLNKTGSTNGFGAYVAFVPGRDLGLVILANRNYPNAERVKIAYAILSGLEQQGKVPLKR

[2] = molecular target: Beta-lactamase (Serratia marcescens) (UniProt P18539); experiment: Activity of Serratia marcescens AmpC assessed as drug hydrolysis by spectrophotometry relative to cephaloridine; design: scale not given: the % may be the effect or the level left
Chain of Beta-lactamase (Serratia marcescens) (P18539 whole entry): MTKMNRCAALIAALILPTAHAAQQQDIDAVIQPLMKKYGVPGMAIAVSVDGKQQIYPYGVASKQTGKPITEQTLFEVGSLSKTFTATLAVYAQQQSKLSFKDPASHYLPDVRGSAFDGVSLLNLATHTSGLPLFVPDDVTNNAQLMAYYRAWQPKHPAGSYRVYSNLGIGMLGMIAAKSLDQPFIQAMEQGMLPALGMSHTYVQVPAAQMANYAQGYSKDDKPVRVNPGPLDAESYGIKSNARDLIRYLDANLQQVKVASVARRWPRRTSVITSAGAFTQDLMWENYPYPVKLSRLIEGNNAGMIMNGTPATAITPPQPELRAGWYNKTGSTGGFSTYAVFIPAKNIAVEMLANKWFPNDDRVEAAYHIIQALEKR

[3] = molecular target: Beta-lactamase (Serratia marcescens) (UniProt P18539); experiment: Ratio of Kcat to Km of Serratia marcescens AmpC assessed as drug hydrolysis by spectrophotometry relative to cephaloridine; design: scale not given: the % may be the effect or the level left
[4] = molecular target: Beta-lactamase (Pseudomonas aeruginosa (strain ATCC 15692 / PAO1 / 1C / PRS 101 / LMG12228)) (UniProt P24735); experiment: Ratio of Kcat to Km of Pseudomonas aeruginosa 4352 AmpC assessed as drug hydrolysis by spectrophotometry relative to cephaloridine; design: scale not given: the % may be the effect or the level left
[5] = molecular target: Beta-lactamase (Morganella morganii) (UniProt P94958); experiment: Activity of Morganella morganii AmpC assessed as drug hydrolysis by spectrophotometry relative to cephaloridine; design: scale not given: the % may be the effect or the level left
[6] = molecular target: Beta-lactamase (Morganella morganii) (UniProt P94958); experiment: Ratio of Kcat to Km of Morganella morganii AmpC assessed as drug hydrolysis by spectrophotometry relative to cephaloridine; design: scale not given: the % may be the effect or the level left
Klebsiella pneumoniae [7] = experiment: Activity of Klebsiella pneumoniae TEM26 assessed as drug hydrolysis by spectrophotometry
Klebsiella pneumoniae [8] = experiment: Activity of Klebsiella pneumoniae TEM26 assessed as drug hydrolysis by spectrophotometry relative to cephaloridine; design: scale not given: the % may be the effect or the level left
[9] = molecular target: Beta-lactamase (Pseudomonas aeruginosa (strain ATCC 15692 / PAO1 / 1C / PRS 101 / LMG12228)) (UniProt P24735); experiment: Activity of Pseudomonas aeruginosa AmpC assessed as drug hydrolysis by spectrophotometry relative to cephaloridine; design: scale not given: the % may be the effect or the level left
[10] = molecular target: Beta-lactamase (Staphylococcus aureus) (UniProt P00807); experiment: Ratio of Kcat to Km of Staphylococcus aureus betalactamase PC1 assessed as drug hydrolysis by spectrophotometry relative to cephaloridine; design: scale not given: the % may be the effect or the level left
Chain of Beta-lactamase (Staphylococcus aureus) (P00807 whole entry): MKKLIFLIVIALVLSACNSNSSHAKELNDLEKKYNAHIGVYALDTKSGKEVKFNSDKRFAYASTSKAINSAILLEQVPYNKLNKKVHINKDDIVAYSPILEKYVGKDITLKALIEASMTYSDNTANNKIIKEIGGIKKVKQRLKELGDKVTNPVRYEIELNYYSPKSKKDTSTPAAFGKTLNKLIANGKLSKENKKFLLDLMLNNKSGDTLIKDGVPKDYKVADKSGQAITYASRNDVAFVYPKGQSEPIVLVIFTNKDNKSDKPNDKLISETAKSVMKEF

[11] = molecular target: T1, Beta-lactamase (Klebsiella oxytoca) (UniProt Q8RT60); experiment: Activity of Klebsiella oxytoca beta-lactamase K1 assessed as drug hydrolysis by spectrophotometry relative to cephaloridine; design: scale not given: the % may be the effect or the level left
T1 sequence (whole entry): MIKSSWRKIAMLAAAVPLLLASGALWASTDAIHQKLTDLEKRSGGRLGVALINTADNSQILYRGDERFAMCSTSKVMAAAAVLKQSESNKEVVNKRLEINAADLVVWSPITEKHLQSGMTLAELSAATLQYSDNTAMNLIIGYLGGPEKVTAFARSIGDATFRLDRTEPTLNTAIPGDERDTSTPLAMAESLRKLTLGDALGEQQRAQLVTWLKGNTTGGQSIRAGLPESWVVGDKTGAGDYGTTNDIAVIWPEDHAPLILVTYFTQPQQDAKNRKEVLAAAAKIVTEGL

[12] = molecular target: T2, Beta-lactamase SHV-1 (Klebsiella pneumoniae) (UniProt P0AD64); experiment: Activity of Klebsiella pneumoniae SHV1 assessed as drug hydrolysis by spectrophotometry relative to cephaloridine; design: scale not given: the % may be the effect or the level left
T2 sequence (whole entry): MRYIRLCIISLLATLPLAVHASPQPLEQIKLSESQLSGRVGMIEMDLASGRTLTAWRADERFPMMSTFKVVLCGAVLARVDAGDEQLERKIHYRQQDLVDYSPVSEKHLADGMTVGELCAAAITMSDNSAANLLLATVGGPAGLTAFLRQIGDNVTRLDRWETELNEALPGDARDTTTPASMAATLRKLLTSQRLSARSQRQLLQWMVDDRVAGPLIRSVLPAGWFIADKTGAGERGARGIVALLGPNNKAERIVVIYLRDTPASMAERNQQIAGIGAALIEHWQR

[13] = molecular target: Beta-lactamase CTX-M (Escherichia coli) (UniProt Q9EXV5); experiment: Activity of Escherichia coli CTX-M-15 assessed as drug hydrolysis by spectrophotometry relative to cephaloridine; design: scale not given: the % may be the effect or the level left
[14] = molecular target: Beta-lactamase (Pseudomonas aeruginosa (strain ATCC 15692 / PAO1 / 1C / PRS 101 / LMG12228)) (UniProt P24735); experiment: Ratio of Kcat to Km of Pseudomonas aeruginosa MK-1184 AmpC assessed as drug hydrolysis by spectrophotometry relative to cephaloridine; design: scale not given: the % may be the effect or the level left
[15] = molecular target: T3, Beta-lactamase (Providencia stuartii) (UniProt O69773); experiment: Ratio of Kcat to Km of Providencia stuartii AmpC assessed as drug hydrolysis by spectrophotometry relative to cephaloridine; design: scale not given: the % may be the effect or the level left
T3 sequence (whole entry): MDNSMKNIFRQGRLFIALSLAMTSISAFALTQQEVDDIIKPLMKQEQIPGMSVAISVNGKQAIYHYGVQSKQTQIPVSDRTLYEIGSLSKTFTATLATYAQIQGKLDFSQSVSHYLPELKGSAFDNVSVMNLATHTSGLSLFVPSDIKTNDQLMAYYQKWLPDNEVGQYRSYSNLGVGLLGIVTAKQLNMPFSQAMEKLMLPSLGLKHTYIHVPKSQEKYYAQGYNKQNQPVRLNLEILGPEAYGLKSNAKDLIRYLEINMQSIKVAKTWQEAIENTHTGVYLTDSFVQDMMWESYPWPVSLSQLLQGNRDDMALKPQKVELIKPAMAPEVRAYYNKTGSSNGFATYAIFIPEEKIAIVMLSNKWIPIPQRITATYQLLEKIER

[16] = molecular target: Beta-lactamase CTX-M (Escherichia coli) (UniProt Q9EXV5); experiment: Ratio of Kcat to Km of Escherichia coli CTX-M-15 assessed as drug hydrolysis by spectrophotometry relative to cephaloridine; design: scale not given: the % may be the effect or the level left
[17] = molecular target: Beta-lactamase (Pseudomonas aeruginosa (strain ATCC 15692 / PAO1 / 1C / PRS 101 / LMG12228)) (UniProt P24735); experiment: Ratio of Kcat to Km of Pseudomonas aeruginosa 18SH AmpC assessed as drug hydrolysis by spectrophotometry relative to cephaloridine; design: scale not given: the % may be the effect or the level left
[18] = molecular target: T4, Carbapenem-hydrolyzing beta-lactamase SME-3 (Serratia marcescens) (UniProt Q6PRG8); experiment: Activity of Serratia marcescens SME3 assessed as drug hydrolysis by spectrophotometry relative to cephaloridine; design: scale not given: the % may be the effect or the level left
T4 sequence (whole entry): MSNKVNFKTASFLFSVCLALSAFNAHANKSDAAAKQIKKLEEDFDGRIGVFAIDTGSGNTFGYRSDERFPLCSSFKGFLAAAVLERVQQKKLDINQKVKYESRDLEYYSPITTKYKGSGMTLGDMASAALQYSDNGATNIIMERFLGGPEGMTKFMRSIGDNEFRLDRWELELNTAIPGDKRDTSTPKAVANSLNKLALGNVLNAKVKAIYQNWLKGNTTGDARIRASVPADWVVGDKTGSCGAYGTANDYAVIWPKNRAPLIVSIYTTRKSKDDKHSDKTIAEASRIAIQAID

[19] = molecular target: Beta-lactamase TEM (Escherichia coli) (UniProt P62593); experiment: Activity of Escherichia coli TEM1 assessed as drug hydrolysis by spectrophotometry relative to cephaloridine; design: scale not given: the % may be the effect or the level left
Chain of Beta-lactamase TEM (Escherichia coli) (P62593 whole entry): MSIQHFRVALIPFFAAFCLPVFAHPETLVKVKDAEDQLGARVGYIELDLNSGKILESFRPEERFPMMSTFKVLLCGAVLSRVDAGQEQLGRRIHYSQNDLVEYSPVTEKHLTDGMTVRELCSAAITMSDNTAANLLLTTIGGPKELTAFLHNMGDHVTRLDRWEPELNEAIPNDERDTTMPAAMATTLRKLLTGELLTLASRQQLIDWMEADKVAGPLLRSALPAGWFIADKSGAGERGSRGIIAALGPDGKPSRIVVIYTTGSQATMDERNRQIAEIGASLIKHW

[20] = molecular target: Beta-lactamase TEM (Escherichia coli) (UniProt P62593); experiment: Ratio of Kcat to Km of Escherichia coli TEM1 assessed as drug hydrolysis by spectrophotometry relative to cephaloridine; design: scale not given: the % may be the effect or the level left
[21] = molecular target: Beta-lactamase (Pseudomonas aeruginosa (strain ATCC 15692 / PAO1 / 1C / PRS 101 / LMG12228)) (UniProt P24735); experiment: Activity of Pseudomonas aeruginosa 18SH AmpC assessed as drug hydrolysis by spectrophotometry relative to cephaloridine; design: scale not given: the % may be the effect or the level left
[22] = molecular target: Metallo beta-lactamase (Pseudomonas aeruginosa) (UniProt Q6TUJ4); experiment: Ratio of Kcat to Km of Pseudomonas aeruginosa IMP1 assessed as drug hydrolysis by spectrophotometry relative to cephaloridine; design: scale not given: the % may be the effect or the level left
Chain of Metallo beta-lactamase (Pseudomonas aeruginosa) (Q6TUJ4 as listed by the source): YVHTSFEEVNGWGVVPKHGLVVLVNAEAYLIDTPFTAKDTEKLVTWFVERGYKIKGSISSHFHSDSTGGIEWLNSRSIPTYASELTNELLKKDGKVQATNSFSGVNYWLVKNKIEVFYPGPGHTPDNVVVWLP

Klebsiella pneumoniae [23] = experiment: Ratio of Kcat to Km of Klebsiella pneumoniae TEM26 assessed as drug hydrolysis by spectrophotometry relative to cephaloridine; design: scale not given: the % may be the effect or the level left
Klebsiella pneumoniae [24] = experiment: Ratio of Kcat to Km of Klebsiella pneumoniae TEM26 assessed as drug hydrolysis by spectrophotometry
[25] = molecular target: T1, Beta-lactamase (Klebsiella oxytoca); experiment: Ratio of Kcat to Km of Klebsiella oxytoca beta-lactamase K1 assessed as drug hydrolysis by spectrophotometry relative to cephaloridine; design: scale not given: the % may be the effect or the level left
[26] = molecular target: T2, Beta-lactamase SHV-1 (Klebsiella pneumoniae); experiment: Ratio of Kcat to Km of Klebsiella pneumoniae SHV1 assessed as drug hydrolysis by spectrophotometry relative to cephaloridine; design: scale not given: the % may be the effect or the level left
[27] = molecular target: Beta-lactamase VIM-2 (Pseudomonas aeruginosa) (UniProt Q9K2N0); experiment: Ratio of Kcat to Km of Pseudomonas aeruginosa VIM2 assessed as drug hydrolysis by spectrophotometry relative to cephaloridine; design: scale not given: the % may be the effect or the level left
[28] = molecular target: Beta-lactamase VIM-2 (Pseudomonas aeruginosa) (UniProt Q9K2N0); experiment: Activity of Pseudomonas aeruginosa VIM2 assessed as drug hydrolysis by spectrophotometry relative to cephaloridine; design: scale not given: the % may be the effect or the level left
[29] = molecular target: T4, Carbapenem-hydrolyzing beta-lactamase SME-3 (Serratia marcescens); experiment: Ratio of Kcat to Km of Serratia marcescens SME3 assessed as drug hydrolysis by spectrophotometry relative to cephaloridine; design: scale not given: the % may be the effect or the level left
[30] = molecular target: Beta-lactamase (Pseudomonas aeruginosa (strain ATCC 15692 / PAO1 / 1C / PRS 101 / LMG12228)) (UniProt P24735); experiment: Activity of Pseudomonas aeruginosa MK-1184 AmpC assessed as drug hydrolysis by spectrophotometry relative to cephaloridine; design: scale not given: the % may be the effect or the level left
[31] = molecular target: T3, Beta-lactamase (Providencia stuartii); experiment: Activity of Providencia stuartii AmpC assessed as drug hydrolysis by spectrophotometry relative to cephaloridine; design: scale not given: the % may be the effect or the level left
[32] = molecular target: Beta-lactamase (Staphylococcus aureus) (UniProt P00807); experiment: Activity of Staphylococcus aureus betalactamase PC1 assessed as drug hydrolysis by spectrophotometry relative to cephaloridine; design: scale not given: the % may be the effect or the level left

Compound O=C(Cc1cccs1)N[C@@H]1C(=O)N2C(C(=O)O)=C(/C=C/c3ccc([N+](=O)[O-])cc3[N+](=O)[O-])CS[C@H]12 has an Activity [1] of 68%, an Activity [2] of 42% and an Activity [3] of 19%. The Activity [4] was 1800%, the Activity [5] was 160% and the Activity [6] was 1400%.

Compound CC(C)(O/N=C(\C(=O)N[C@@H]1C(=O)N2C(C(=O)[O-])=C(C[n+]3ccccc3)CS[C@H]12)c1csc(N)n1)C(=O)O has a Km (Klebsiella pneumoniae [7]) of 130 µM, a kcat (Klebsiella pneumoniae [7]) of 95 s⁻¹ and an Activity (Klebsiella pneumoniae [8]) of 260%. It also gave an Activity [9] of under 0.059%, an Activity [1] of under 0.01% and an Activity [2] of under 0.0025%. The Activity [3] was under 0.0028%, the Activity [10] was 0.92% and the Activity [11] was 0.0026%. It also gave an Activity [12] of 0.0026%, an Activity [13] of 2.3% and an Activity [14] of 5.3%. It also gave an Activity [15] of 1.3%, an Activity [16] of 0.37% and an Activity [17] of 0.83%. For the same compound, the Activity [18] was 0.013%, the Activity [19] was 0.00023% and the Activity [20] was 0.00067%. The Activity [21] was under 0.1%, the Activity [22] was 120% and the Activity (Klebsiella pneumoniae [23]) was 130%. The kcat/Km (Klebsiella pneumoniae [24]) was 730000 M⁻¹ s⁻¹, the Activity [25] was 0.0018% and the Activity [26] was 0.00084%. For the same compound, the Activity [4] was 0.42%, the Activity [27] was 1.7% and the Activity [28] was 0.19%. It also gave an Activity [29] of 0.031%, an Activity [30] of 3.1% and an Activity [31] of 0.036%. It also gave an Activity [5] of under 0.14%, an Activity [6] of under 2.5% and an Activity [32] of 0.25%.
